Assay results: the supplement of paper PMC11451515

Experiments:
Conditions in all cases: 48 h
[1] = tested on: P12-Ichikawa; assay: AUC of viability dose-response curve (% viability x log10 dose units); higher = less sensitive
In short: (§1)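 Over 48 h at 37°C, leukemia cells in 1536-well plates (500 or 1000 cells/well), adapted to each medium, received library compounds in DMSO at 11 threefold doses from 47 μM to 0.79 nM. CellTiter-Glo One luminescence, normalised per plate to DMSO and cell-free wells, was fitted by a four-parameter log-logistic function of log10 dose. The area under the curve was then integrated by trapezoidal rule, after scaling curves above full viability and removing those that failed quality control.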

[2] = tested on: NOMO1; assay: as above
In short: as §1

[3] = tested on: SEM cells; assay: as above
In short: as §1

[4] = tested on: P12-Ichikawa; assay: cell viability relative to DMSO control; higher = less cytotoxic
In short: (§2)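 NOMO1 or SEM (500 cells/well) or P12-Ichikawa (1000 cells/well) leukemia cells were adapted for at least four passages in each medium. They were seeded in 1536-well plates (5 μl) and pin-dosed with library compounds in DMSO over an 11-point threefold series, 47 μM to 0.79 nM. CellTiter-Glo One luminescence was read after 48 h at 37°C. Viability is the per-plate percentage relative to DMSO wells, with cell-free wells as background.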

[5] = tested on: NOMO1; assay: as above
In short: as §2

[6] = tested on: SEM cells; assay: as above
In short: as §2

Oc1cc(O)cc(/C=C/c2ccc(O)c(O)c2)c1
AUC of viability dose-response curve
Conditions | [1] | [2] | [3]
HPLM + 10% dialyzed FBS | 449 | 442 | 413
RPMI 5 mM glucose + 10% FBS | 452 | 416 | 430
RPMI 5 mM glucose + 10% dialyzed FBS | 444 | 431 | 390

cell viability [%]
Conditions | [4] | [5] | [6]
HPLM + 10% dialyzed FBS, 0.000781 µM | 103 | 97.9 | 86.5
HPLM + 10% dialyzed FBS, 0.00234 µM | 103 | 101 | 85.8
HPLM + 10% dialyzed FBS, 0.00702 µM | 100 | 99.3 | 89.6
HPLM + 10% dialyzed FBS, 0.0211 µM | 106 | 99.4 | 80.1
HPLM + 10% dialyzed FBS, 0.0632 µM | 103 | 110 | 99.9
HPLM + 10% dialyzed FBS, 0.19 µM | 109 | 104 | 92.7
HPLM + 10% dialyzed FBS, 0.569 µM | 106 | 97.4 | 93.3
HPLM + 10% dialyzed FBS, 1.71 µM | 111 | 101 | 106
HPLM + 10% dialyzed FBS, 5.12 µM | 98 | 100 | 78.1
HPLM + 10% dialyzed FBS, 15.4 µM | 85.2 | 56 | 77.9
HPLM + 10% dialyzed FBS, 46.1 µM | 28.3 | 45.4 | 44.6
RPMI 5 mM glucose + 10% FBS, 0.000781 µM | 97.5 | 89.7 | 101
RPMI 5 mM glucose + 10% FBS, 0.00234 µM | 92.7 | 90.5 | 102
RPMI 5 mM glucose + 10% FBS, 0.00702 µM | 101 | 94 | 95
RPMI 5 mM glucose + 10% FBS, 0.0211 µM | 104 | 85.6 | 107
RPMI 5 mM glucose + 10% FBS, 0.0632 µM | 102 | 91.9 | 101
RPMI 5 mM glucose + 10% FBS, 0.19 µM | 97.8 | 85.7 | 101
RPMI 5 mM glucose + 10% FBS, 0.569 µM | 105 | 97.1 | 115
RPMI 5 mM glucose + 10% FBS, 1.71 µM | 97 | 88.4 | 92.7
RPMI 5 mM glucose + 10% FBS, 5.12 µM | 85 | 86.9 | 85.3
RPMI 5 mM glucose + 10% FBS, 15.4 µM | 91.1 | 72.3 | 67.5
RPMI 5 mM glucose + 10% FBS, 46.1 µM | 45.6 | 70.8 | 14.2
RPMI 5 mM glucose + 10% dialyzed FBS, 0.000781 µM | 87.6 | 81.6 | 87.9
RPMI 5 mM glucose + 10% dialyzed FBS, 0.00234 µM | 88.3 | 99.6 | 92.7
RPMI 5 mM glucose + 10% dialyzed FBS, 0.00702 µM | 101 | 92.3 | 78.6
RPMI 5 mM glucose + 10% dialyzed FBS, 0.0211 µM | 104 | 88.8 | 82.6
RPMI 5 mM glucose + 10% dialyzed FBS, 0.0632 µM | 102 | 103 | 87.5
RPMI 5 mM glucose + 10% dialyzed FBS, 0.19 µM | 104 | 98.4 | 89.8
RPMI 5 mM glucose + 10% dialyzed FBS, 0.569 µM | 93 | 94.9 | 97.6
RPMI 5 mM glucose + 10% dialyzed FBS, 1.71 µM | 101 | 93.5 | 84.2
RPMI 5 mM glucose + 10% dialyzed FBS, 5.12 µM | 93.6 | 79.3 | 82.4
RPMI 5 mM glucose + 10% dialyzed FBS, 15.4 µM | 84.4 | 84.8 | 63.4
RPMI 5 mM glucose + 10% dialyzed FBS, 46.1 µM | 40.7 | 72.8 | 27.3

Cc1cc(Cl)ccc1OCCCC(=O)NO
AUC of viability dose-response curve
Conditions | [1] | [2] | [3]
HPLM + 10% dialyzed FBS | 400 | 438 | 411
RPMI 5 mM glucose + 10% FBS | 380 | 428 | 418
RPMI 5 mM glucose + 10% dialyzed FBS | 336 | 444 | 403

cell viability [%]
Conditions | [4] | [5] | [6]
HPLM + 10% dialyzed FBS, 0.000781 µM | 102 | 106 | 105
HPLM + 10% dialyzed FBS, 0.00234 µM | 105 | 117 | 96.7
HPLM + 10% dialyzed FBS, 0.00702 µM | 105 | 107 | 103
HPLM + 10% dialyzed FBS, 0.0211 µM | 116 | 94.8 | 117
HPLM + 10% dialyzed FBS, 0.0632 µM | 106 | 110 | 130
HPLM + 10% dialyzed FBS, 0.19 µM | 105 | 122 | 120
HPLM + 10% dialyzed FBS, 0.569 µM | 101 | 117 | 118
HPLM + 10% dialyzed FBS, 1.71 µM | 98.6 | 112 | 101
HPLM + 10% dialyzed FBS, 5.12 µM | 78.3 | 103 | 89
HPLM + 10% dialyzed FBS, 15.4 µM | 15 | 67 | 34
HPLM + 10% dialyzed FBS, 46.1 µM | 3.84 | 33.5 | 12.8
RPMI 5 mM glucose + 10% FBS, 0.000781 µM | 97.8 | 93.5 | 107
RPMI 5 mM glucose + 10% FBS, 0.00234 µM | 102 | 112 | 101
RPMI 5 mM glucose + 10% FBS, 0.00702 µM | 108 | 93.2 | 102
RPMI 5 mM glucose + 10% FBS, 0.0211 µM | 110 | 112 | 122
RPMI 5 mM glucose + 10% FBS, 0.0632 µM | 101 | 113 | 112
RPMI 5 mM glucose + 10% FBS, 0.19 µM | 98.2 | 96.9 | 117
RPMI 5 mM glucose + 10% FBS, 0.569 µM | 99.4 | 106 | 115
RPMI 5 mM glucose + 10% FBS, 1.71 µM | 81.2 | 107 | 124
RPMI 5 mM glucose + 10% FBS, 5.12 µM | 57.9 | 94 | 91.7
RPMI 5 mM glucose + 10% FBS, 15.4 µM | 17.4 | 52.3 | 43.9
RPMI 5 mM glucose + 10% FBS, 46.1 µM | 3.91 | 15.9 | 10.9
RPMI 5 mM glucose + 10% dialyzed FBS, 0.000781 µM | 113 | 105 | 98.8
RPMI 5 mM glucose + 10% dialyzed FBS, 0.00234 µM | 104 | 121 | 96.2
RPMI 5 mM glucose + 10% dialyzed FBS, 0.00702 µM | 108 | 101 | 93.5
RPMI 5 mM glucose + 10% dialyzed FBS, 0.0211 µM | 111 | 114 | 99.4
RPMI 5 mM glucose + 10% dialyzed FBS, 0.0632 µM | 111 | 99.5 | 97.1
RPMI 5 mM glucose + 10% dialyzed FBS, 0.19 µM | 102 | 104 | 106
RPMI 5 mM glucose + 10% dialyzed FBS, 0.569 µM | 100 | 119 | 105
RPMI 5 mM glucose + 10% dialyzed FBS, 1.71 µM | 35.9 | 114 | 89.5
RPMI 5 mM glucose + 10% dialyzed FBS, 5.12 µM | 37.2 | 117 | 76.5
RPMI 5 mM glucose + 10% dialyzed FBS, 15.4 µM | 5.67 | 73.4 | 26.7
RPMI 5 mM glucose + 10% dialyzed FBS, 46.1 µM | 3.42 | 31 | 10.2

NC\1=N\C(=O)N(\C=C1)[C@H]\2[C@H](O)[C@H](O)C(=C2F)\CO
AUC of viability dose-response curve
Conditions | [1] | [2] | [3]
HPLM + 10% dialyzed FBS | 361 | 369 | 376
RPMI 5 mM glucose + 10% FBS | 394 | 378 | 421
RPMI 5 mM glucose + 10% dialyzed FBS | 389 | 369 | 353

cell viability [%]
Conditions | [4] | [5] | [6]
HPLM + 10% dialyzed FBS, 0.000781 µM | 95.2 | 78.5 | 77.6
HPLM + 10% dialyzed FBS, 0.00234 µM | 106 | 111 | 90.2
HPLM + 10% dialyzed FBS, 0.00702 µM | 104 | 105 | 85
HPLM + 10% dialyzed FBS, 0.0211 µM | 105 | 101 | 103
HPLM + 10% dialyzed FBS, 0.0632 µM | 105 | 110 | 92.2
HPLM + 10% dialyzed FBS, 0.19 µM | 106 | 90.8 | 97.6
HPLM + 10% dialyzed FBS, 0.569 µM | 104 | 94.7 | 108
HPLM + 10% dialyzed FBS, 1.71 µM | 60 | 67.5 | 96.3
HPLM + 10% dialyzed FBS, 5.12 µM | 28 | 32.1 | 52.5
HPLM + 10% dialyzed FBS, 15.4 µM | 19.3 | 33.6 | 28.8
HPLM + 10% dialyzed FBS, 46.1 µM | 16.5 | 11.3 | 16.8
RPMI 5 mM glucose + 10% FBS, 0.000781 µM | 89.4 | 86.3 | 118
RPMI 5 mM glucose + 10% FBS, 0.00234 µM | 96.8 | 112 | 116
RPMI 5 mM glucose + 10% FBS, 0.00702 µM | 96.3 | 117 | 130
RPMI 5 mM glucose + 10% FBS, 0.0211 µM | 106 | 106 | 148
RPMI 5 mM glucose + 10% FBS, 0.0632 µM | 103 | 107 | 113
RPMI 5 mM glucose + 10% FBS, 0.19 µM | 114 | 88.2 | 118
RPMI 5 mM glucose + 10% FBS, 0.569 µM | 101 | 93 | 128
RPMI 5 mM glucose + 10% FBS, 1.71 µM | 95.7 | 83.5 | 117
RPMI 5 mM glucose + 10% FBS, 5.12 µM | 47.8 | 54.6 | 74.1
RPMI 5 mM glucose + 10% FBS, 15.4 µM | 29.1 | 12.6 | 74.5
RPMI 5 mM glucose + 10% FBS, 46.1 µM | 16.9 | 7.41 | 57.9
RPMI 5 mM glucose + 10% dialyzed FBS, 0.000781 µM | 91.8 | 89.1 | 90.2
RPMI 5 mM glucose + 10% dialyzed FBS, 0.00234 µM | 114 | 96.9 | 95.3
RPMI 5 mM glucose + 10% dialyzed FBS, 0.00702 µM | 114 | 104 | 95.1
RPMI 5 mM glucose + 10% dialyzed FBS, 0.0211 µM | 116 | 111 | 103
RPMI 5 mM glucose + 10% dialyzed FBS, 0.0632 µM | 115 | 109 | 117
RPMI 5 mM glucose + 10% dialyzed FBS, 0.19 µM | 108 | 107 | 109
RPMI 5 mM glucose + 10% dialyzed FBS, 0.569 µM | 100 | 111 | 92.2
RPMI 5 mM glucose + 10% dialyzed FBS, 1.71 µM | 89.4 | 86.4 | 51.8
RPMI 5 mM glucose + 10% dialyzed FBS, 5.12 µM | 67.9 | 27.7 | 23.1
RPMI 5 mM glucose + 10% dialyzed FBS, 15.4 µM | 23.4 | 10.2 | 19
RPMI 5 mM glucose + 10% dialyzed FBS, 46.1 µM | 11.4 | 7.62 | 15.3
